Test results as given in ChEMBL document CHEMBL4400574, “Chemical synthesis and biological activity of novel brominated 7-deazaadenosine-3',5'-cyclic monophosphate derivatives” (Bioorg Med Chem, 2019).

What was measured:
[1] = target: T1, Rap guanine nucleotide exchange factor 4 (Mus musculus, UniProt Q9EQZ6); experiment: Inhibition of 8Fluo-cAMP binding to DEP domain deficient mouse EPAC2 (280 to 998 residues) measured after 5 mins by fluorescence polarization assay
T1 sequence (Q9EQZ6 whole entry): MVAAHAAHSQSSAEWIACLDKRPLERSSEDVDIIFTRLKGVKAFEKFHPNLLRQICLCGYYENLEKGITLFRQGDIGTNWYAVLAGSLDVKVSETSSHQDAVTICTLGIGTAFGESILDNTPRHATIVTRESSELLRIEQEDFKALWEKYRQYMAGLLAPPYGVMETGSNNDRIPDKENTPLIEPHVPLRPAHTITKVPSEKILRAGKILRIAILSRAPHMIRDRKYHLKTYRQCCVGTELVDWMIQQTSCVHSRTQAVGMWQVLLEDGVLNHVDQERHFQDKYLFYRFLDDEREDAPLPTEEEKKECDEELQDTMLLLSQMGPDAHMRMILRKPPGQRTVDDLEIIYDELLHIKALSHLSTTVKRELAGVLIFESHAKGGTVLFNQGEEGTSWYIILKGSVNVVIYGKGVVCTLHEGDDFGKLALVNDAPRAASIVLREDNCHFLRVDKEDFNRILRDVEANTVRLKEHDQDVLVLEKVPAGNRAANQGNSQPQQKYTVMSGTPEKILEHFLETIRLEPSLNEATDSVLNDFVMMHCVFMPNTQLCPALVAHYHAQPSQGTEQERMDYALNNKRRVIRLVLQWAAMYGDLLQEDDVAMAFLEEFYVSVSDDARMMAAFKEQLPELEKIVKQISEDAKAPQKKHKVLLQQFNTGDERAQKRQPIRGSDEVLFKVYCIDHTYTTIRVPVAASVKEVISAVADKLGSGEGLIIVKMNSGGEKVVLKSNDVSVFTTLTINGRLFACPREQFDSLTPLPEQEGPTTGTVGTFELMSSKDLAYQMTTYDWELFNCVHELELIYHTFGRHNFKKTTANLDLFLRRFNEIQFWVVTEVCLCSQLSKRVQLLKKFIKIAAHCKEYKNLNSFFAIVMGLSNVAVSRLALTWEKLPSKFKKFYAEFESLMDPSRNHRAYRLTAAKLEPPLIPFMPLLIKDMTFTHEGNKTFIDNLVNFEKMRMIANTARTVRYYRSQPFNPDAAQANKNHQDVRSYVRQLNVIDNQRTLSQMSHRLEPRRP

[2] = target: cAMP-dependent protein kinase type II-alpha regulatory subunit (Homo sapiens) (UniProt P13861)
cAMP-dependent protein kinase type II-alpha regulatory subunit (Homo sapiens), sequence (P13861 whole entry): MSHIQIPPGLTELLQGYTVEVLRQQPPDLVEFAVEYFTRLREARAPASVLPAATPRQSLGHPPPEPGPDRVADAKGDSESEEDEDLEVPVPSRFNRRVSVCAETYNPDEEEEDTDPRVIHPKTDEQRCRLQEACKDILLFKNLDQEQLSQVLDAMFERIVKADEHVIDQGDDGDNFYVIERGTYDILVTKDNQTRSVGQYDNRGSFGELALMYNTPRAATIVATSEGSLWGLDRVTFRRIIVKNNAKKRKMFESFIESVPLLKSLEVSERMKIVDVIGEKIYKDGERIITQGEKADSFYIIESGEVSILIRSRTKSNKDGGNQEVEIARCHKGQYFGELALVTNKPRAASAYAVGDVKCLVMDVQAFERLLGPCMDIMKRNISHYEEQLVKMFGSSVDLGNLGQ
Description: Activation of recombinant human PKAR2alpha expressed in Escherichia coli using Kemptide as substrate by spectrophotometric method

[3] = target: cAMP-dependent protein kinase type I-alpha regulatory subunit (Homo sapiens) (UniProt P10644)
cAMP-dependent protein kinase type I-alpha regulatory subunit (Homo sapiens), sequence (P10644 whole entry): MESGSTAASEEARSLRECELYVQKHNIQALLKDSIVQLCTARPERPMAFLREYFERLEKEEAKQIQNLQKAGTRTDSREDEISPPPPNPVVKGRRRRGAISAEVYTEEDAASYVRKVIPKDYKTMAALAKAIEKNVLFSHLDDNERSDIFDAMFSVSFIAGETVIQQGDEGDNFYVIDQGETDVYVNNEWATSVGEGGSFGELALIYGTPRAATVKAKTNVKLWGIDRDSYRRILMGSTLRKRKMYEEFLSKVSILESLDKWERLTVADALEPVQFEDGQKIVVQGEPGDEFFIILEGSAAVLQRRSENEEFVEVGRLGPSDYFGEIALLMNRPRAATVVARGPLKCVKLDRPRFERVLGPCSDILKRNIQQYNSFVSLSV
Description: Activation of recombinant human PKAR1alpha expressed in Escherichia coli using Kemptide as substrate by spectrophotometric method

[4] = target: CNGA2/CNGA4/CNGB1 (Rattus norvegicus, UniProt O35788+Q00195+Q64359); experiment: Activation of recombinant rat CNGA2/CNGA4/CNGB1b heterotetramer expressed in Xenopus laevis oocyte assessed as increase in current amplitude by patch-clamp electrophysiology method
CNGA2/CNGA4/CNGB1, sequence (Q64359 whole entry, one chain of several): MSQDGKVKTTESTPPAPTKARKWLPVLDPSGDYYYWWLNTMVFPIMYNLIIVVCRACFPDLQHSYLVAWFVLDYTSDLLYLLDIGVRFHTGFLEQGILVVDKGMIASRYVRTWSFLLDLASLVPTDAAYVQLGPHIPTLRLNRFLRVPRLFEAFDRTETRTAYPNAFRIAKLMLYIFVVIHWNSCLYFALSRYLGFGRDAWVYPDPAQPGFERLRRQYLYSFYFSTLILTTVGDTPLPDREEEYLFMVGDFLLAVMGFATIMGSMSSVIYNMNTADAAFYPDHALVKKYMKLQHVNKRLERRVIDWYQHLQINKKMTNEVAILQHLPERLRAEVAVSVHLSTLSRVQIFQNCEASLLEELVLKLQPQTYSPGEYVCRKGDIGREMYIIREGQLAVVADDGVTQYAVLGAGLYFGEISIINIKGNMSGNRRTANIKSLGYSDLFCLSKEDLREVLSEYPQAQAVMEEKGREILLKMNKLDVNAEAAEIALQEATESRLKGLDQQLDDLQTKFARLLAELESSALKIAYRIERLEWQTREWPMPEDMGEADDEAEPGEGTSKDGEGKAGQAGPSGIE
CNGA2/CNGA4/CNGB1, sequence (O35788 whole entry, one chain of several): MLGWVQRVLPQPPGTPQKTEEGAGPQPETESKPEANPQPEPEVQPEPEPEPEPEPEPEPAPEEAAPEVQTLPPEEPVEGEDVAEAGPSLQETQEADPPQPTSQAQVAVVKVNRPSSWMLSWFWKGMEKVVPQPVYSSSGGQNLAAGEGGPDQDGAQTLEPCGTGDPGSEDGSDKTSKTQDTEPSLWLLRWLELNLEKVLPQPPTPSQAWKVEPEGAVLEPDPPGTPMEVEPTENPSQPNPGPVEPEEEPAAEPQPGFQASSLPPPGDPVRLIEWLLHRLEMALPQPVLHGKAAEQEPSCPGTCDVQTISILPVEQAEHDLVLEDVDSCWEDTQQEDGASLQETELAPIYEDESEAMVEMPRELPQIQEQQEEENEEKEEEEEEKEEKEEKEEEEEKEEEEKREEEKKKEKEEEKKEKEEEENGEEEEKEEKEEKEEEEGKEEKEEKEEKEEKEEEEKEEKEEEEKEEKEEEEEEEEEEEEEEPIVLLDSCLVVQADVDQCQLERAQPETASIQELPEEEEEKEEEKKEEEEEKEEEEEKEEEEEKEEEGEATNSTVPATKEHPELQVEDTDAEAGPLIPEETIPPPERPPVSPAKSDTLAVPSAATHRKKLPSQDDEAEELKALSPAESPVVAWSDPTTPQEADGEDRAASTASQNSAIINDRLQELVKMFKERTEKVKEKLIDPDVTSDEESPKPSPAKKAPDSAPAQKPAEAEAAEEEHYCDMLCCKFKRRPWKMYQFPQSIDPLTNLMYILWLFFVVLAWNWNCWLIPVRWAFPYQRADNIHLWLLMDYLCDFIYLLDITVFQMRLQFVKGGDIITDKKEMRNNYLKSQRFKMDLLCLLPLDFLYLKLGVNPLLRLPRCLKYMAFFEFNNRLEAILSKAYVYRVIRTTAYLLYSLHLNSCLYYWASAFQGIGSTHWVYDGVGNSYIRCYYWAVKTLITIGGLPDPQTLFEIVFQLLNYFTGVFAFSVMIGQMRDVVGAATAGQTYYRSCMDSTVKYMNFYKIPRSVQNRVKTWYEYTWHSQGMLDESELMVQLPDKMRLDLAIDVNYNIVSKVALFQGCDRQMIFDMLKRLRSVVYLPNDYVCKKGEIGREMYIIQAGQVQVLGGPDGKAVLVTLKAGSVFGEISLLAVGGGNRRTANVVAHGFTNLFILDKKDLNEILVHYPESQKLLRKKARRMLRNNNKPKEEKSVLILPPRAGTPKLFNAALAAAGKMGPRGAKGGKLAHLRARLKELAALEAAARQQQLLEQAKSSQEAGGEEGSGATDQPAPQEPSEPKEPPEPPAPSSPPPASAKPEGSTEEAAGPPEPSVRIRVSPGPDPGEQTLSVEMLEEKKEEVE

[5] = target: T2, Cyclic nucleotide-gated channel alpha-2 (Rattus norvegicus, UniProt Q00195); experiment: Activation of recombinant rat CNGA2 expressed in Xenopus laevis oocyte assessed as increase in current amplitude by patch-clamp electrophysiology method
T2 sequence (Q00195 whole entry): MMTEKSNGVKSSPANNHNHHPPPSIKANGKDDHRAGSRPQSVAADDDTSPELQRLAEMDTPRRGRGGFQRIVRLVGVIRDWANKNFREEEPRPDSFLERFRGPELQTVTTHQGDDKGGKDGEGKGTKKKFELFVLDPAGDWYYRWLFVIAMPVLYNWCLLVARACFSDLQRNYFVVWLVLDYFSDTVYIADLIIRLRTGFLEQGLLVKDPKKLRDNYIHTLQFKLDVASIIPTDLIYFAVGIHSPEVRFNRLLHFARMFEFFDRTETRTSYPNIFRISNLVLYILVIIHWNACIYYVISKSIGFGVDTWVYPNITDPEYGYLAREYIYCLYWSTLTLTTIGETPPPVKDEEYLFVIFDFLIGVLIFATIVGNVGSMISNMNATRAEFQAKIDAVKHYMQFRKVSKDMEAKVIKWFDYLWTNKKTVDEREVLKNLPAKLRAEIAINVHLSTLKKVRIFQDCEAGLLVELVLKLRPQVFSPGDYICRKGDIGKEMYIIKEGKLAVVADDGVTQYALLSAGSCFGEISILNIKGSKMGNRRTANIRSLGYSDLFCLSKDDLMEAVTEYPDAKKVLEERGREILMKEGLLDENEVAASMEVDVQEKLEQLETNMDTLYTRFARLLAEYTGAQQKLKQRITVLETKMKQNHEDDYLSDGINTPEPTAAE

[6] = target: T3, Rap guanine nucleotide exchange factor 3 (Homo sapiens, UniProt O95398); experiment: Inhibition of 8Fluo-cAMP binding to recombinant human His-tagged EPAC1 (157 to 881 residues) expressed in Escherichia coli measured after 5 mins by fluorescence polarization assay
T3 sequence (O95398 whole entry): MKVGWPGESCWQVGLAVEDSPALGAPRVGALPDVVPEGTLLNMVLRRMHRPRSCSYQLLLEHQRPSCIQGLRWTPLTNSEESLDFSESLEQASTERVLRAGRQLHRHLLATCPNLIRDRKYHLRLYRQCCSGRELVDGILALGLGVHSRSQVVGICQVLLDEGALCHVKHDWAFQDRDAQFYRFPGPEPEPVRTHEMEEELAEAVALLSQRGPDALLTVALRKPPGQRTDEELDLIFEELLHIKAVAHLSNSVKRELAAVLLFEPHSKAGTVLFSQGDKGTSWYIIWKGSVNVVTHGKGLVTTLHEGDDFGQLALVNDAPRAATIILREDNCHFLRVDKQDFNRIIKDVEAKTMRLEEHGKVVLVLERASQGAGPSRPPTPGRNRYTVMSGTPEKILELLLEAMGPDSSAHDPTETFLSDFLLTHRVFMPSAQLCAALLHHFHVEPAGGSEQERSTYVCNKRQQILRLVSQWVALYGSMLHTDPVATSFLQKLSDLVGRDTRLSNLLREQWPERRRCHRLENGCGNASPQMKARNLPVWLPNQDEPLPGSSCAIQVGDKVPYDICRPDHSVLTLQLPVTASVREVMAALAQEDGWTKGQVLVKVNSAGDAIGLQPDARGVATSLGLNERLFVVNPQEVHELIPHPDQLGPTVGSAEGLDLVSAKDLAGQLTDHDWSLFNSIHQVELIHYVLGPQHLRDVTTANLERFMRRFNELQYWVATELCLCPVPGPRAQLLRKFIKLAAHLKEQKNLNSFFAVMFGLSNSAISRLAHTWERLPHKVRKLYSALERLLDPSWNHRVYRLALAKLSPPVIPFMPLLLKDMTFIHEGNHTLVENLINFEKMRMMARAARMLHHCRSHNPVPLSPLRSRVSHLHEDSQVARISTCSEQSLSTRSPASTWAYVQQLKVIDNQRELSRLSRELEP

[7] = target: T4, Potassium/sodium hyperpolarization-activated cyclic nucleotide-gated channel 2 (Mus musculus, UniProt O88703); experiment: Activation of recombinant mouse HCN2 expressed in Xenopus laevis oocyte assessed as increase in current amplitude at -30 mV holding potential by patch-clamp electrophysiology method
T4 sequence (O88703 whole entry): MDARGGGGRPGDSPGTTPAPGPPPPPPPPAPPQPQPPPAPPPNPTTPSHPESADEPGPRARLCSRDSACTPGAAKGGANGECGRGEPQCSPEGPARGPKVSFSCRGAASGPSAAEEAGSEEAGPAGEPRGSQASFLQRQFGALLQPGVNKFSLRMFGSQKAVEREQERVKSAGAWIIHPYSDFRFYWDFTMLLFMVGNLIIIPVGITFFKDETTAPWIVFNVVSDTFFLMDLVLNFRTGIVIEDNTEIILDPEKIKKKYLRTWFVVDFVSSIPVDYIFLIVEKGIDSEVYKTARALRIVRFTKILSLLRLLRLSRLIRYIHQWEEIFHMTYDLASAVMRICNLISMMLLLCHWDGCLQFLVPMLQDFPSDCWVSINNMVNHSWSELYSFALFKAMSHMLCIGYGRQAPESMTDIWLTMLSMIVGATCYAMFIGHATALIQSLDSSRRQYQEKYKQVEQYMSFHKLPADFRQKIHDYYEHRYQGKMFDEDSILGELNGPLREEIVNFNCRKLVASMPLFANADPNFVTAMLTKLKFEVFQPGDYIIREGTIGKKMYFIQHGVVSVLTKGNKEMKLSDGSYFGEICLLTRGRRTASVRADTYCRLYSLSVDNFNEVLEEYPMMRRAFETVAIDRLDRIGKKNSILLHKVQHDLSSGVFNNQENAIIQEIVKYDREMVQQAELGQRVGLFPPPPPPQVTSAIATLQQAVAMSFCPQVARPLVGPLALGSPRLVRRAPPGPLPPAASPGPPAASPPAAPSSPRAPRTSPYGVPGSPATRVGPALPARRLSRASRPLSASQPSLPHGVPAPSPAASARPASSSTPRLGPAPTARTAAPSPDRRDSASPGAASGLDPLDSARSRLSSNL

Compound | EC50 [1] | Kact [2] | Kact [3] | EC50 [4] | EC50 [5] | EC50 [6] | EC50 [7]
Nc1ncnc2c1cc(Br)n2[C@@H]1O[C@@H]2COP(=O)(O)O[C@H]2[C@H]1O | 0.3 µM | 0.072 µM | 0.043 µM | 0.63 µM | 6.4 µM | 0.53 µM | –
Nc1ncnc2c1c(Br)cn2[C@@H]1O[C@@H]2COP(=O)(O)O[C@H]2[C@H]1O | 2.36 µM | 0.097 µM | 0.028 µM | 0.12 µM | 0.54 µM | 2.54 µM | –
Nc1ncnc2c1nc(Br)n2[C@@H]1O[C@@H]2COP(=O)(O)O[C@H]2[C@H]1O | 0.78 µM | 0.088 µM | 0.056 µM | 1.6 µM | 15.4 µM | 1.09 µM | –
Nc1ncnc2c1ccn2[C@@H]1O[C@@H]2COP(=O)(O)O[C@H]2[C@H]1O | 2.06 µM | 0.238 µM | 0.199 µM | 0.36 µM | 2.08 µM | 2.75 µM | 0.015 µM
